Our source for the inhibition and IC50 values is ChEMBL document CHEMBL2034904, “A new series of N5 derivatives of the 1,1,5-trimethyl furo[3,4-c]pyridine-3,4-dione (cerpegin) selectively inhibits the post-acid activity of mammalian 20S proteasomes” (Bioorg Med Chem Lett, 2012).

The source made the active and inactive calls. The rule behind the calls is not given here.

The species entered for one assay is Homo sapiens. The assay is described as follows: Inhibition of trypsin-like activity of 20S proteasome catalytic core from human erythrocytes using Boc-LRR-AMC as substrate at 100 uM preincubated for 15 mins prior to substrate addition measured after 45 mins.
Settings: not given
`CC1(C)OC(=O)c2c1ccn(CCc1ccccc1)c2=O`: the inhibition was 25.3%.

The species named for the next assay is Oryctolagus cuniculus. Briefly: Inhibition of trypsin-like activity of 20S proteasome catalytic core from rabbit erythrocytes using Boc-LRR-AMC as substrate at 100 uM preincubated for 15 mins prior to substrate addition measured after 45 mins.
Settings: not given
In turn, `CC1(C)OC(=O)c2c1ccn(CC(O)CN1CCOCC1)c2=O` (stereo unspecified) gave an inhibition of 42.5%.

For `CC1(C)OC(=O)c2c1ccn(CCCN1CCCC1)c2=O`, the inhibition result was “inactive”.

For `CC1(C)OC(=O)c2c1ccn(CC(O)COc1ccccc1)c2=O` (stereo unspecified), the inhibition stood at 33.3%.

Consider `CC1(C)OC(=O)c2c1ccn(CCO)c2=O`, for which the inhibition entry is “inactive”.

Take `CC1(C)OC(=O)c2c1ccn(Cc1ccncc1)c2=O`: the inhibition result was “inactive”.

With `CC1(C)OC(=O)c2c1ccn(CC(O)c1ccccc1)c2=O` (stereo unspecified), the inhibition amounted to 51.5%.

Regarding `CC1(C)OC(=O)c2c1ccn(Cc1cccc(C(F)(F)F)c1)c2=O`, the inhibition result is “inactive”.

Take `CC1(C)OC(=O)c2c1ccn(CCc1ccccc1Cl)c2=O`: the inhibition is 40%.

Take `CC1(C)OC(=O)c2c1ccn(CCc1ccc(S(N)(=O)=O)cc1)c2=O`: the inhibition entry is “inactive”.

With `CC1(C)OC(=O)c2c1ccn(CCc1c[nH]c3ccccc13)c2=O`, the inhibition result was “inactive”.

Regarding `CN(C)CCn1ccc2c(c1=O)C(=O)OC2(C)C`, the inhibition entry is “inactive”.

Take `CC1(C)OC(=O)c2c1ccn(CCCn1ccnc1)c2=O`: the inhibition result is “inactive”.

`CC1(C)OC(=O)c2c1ccn(CCc1ccc(O)cc1)c2=O`: the inhibition result was “inactive”.

Compound `CC1(C)OC(=O)c2c1ccn(CCc1ccccc1)c2=O` came in with an inhibition of 22.6%.

For the next assay, the species on record is Oryctolagus cuniculus. The assay is described as follows: Inhibition of caspase-like activity of 20S proteasome catalytic core from rabbit erythrocytes using Z-LLE-NA as substrate at 100 uM preincubated for 15 mins prior to substrate addition measured after 45 mins.
Settings: not given
For `CC1(C)OC(=O)c2c1ccn(CC(O)CN1CCOCC1)c2=O` (stereo unspecified), the inhibition entry was “inactive”.

With `CC1(C)OC(=O)c2c1ccn(CCc1c[nH]c3ccccc13)c2=O`, the inhibition was 23.7%.

Consider `CN(C)CCn1ccc2c(c1=O)C(=O)OC2(C)C`, for which the inhibition stood at 50%.

In turn, `CC1(C)OC(=O)c2c1ccn(CCc1ccc(O)cc1)c2=O` showed an inhibition of 21.7%.

The species entered for a further assay is Homo sapiens. Briefly: Inhibition of chymotrypsin-like activity of 20S proteasome catalytic core from human erythrocytes using Suc-LLVY-AMC as substrate preincubated for 15 mins prior to substrate addition measured after 45 mins.
Settings: not given
Take `CC1(C)OC(=O)c2c1ccn(Cc1ccncc1)c2=O`: the inhibition entry is “inactive”.

With `CC1(C)OC(=O)c2c1ccn(CCc1ccccc1)c2=O`, the inhibition entry is “inactive”.

The species entered for a further assay is Homo sapiens. The assay is described as follows: Inhibition of calpain-1 from human erythrocytes using […] as substrate.
Settings: not given
As for `CC1(C)OC(=O)c2c1ccn(CC(O)CN1CCOCC1)c2=O` (stereo unspecified), the inhibition result is “inactive”.

On to `CC1(C)OC(=O)c2c1ccn(CCCN1CCCC1)c2=O`, for which the inhibition result was “inactive”.

With `CC1(C)OC(=O)c2c1ccn(CC(O)COc1ccccc1)c2=O` (stereo unspecified), the inhibition entry is “inactive”.

For `CC1(C)OC(=O)c2c1ccn(CCO)c2=O`, the inhibition entry is “inactive”.

`CC1(C)OC(=O)c2c1ccn(Cc1ccncc1)c2=O`: the inhibition result is “inactive”.

On to `CC1(C)OC(=O)c2c1ccn(CC(O)c1ccccc1)c2=O` (stereo unspecified), for which the inhibition result was “inactive”.

Take `CC1(C)OC(=O)c2c1ccn(Cc1cccc(C(F)(F)F)c1)c2=O`: the inhibition result was “inactive”.

Take `CC1(C)OC(=O)c2c1ccn(CCc1ccccc1Cl)c2=O`: the inhibition entry is “inactive”.

Take `CC1(C)OC(=O)c2c1ccn(CCc1ccc(S(N)(=O)=O)cc1)c2=O`: the inhibition entry is “inactive”.

For `CC1(C)OC(=O)c2c1ccn(CCc1c[nH]c3ccccc13)c2=O`, the inhibition entry is “inactive”.

As to `CN(C)CCn1ccc2c(c1=O)C(=O)OC2(C)C`, the inhibition entry is “inactive”.

In the case of `CC1(C)OC(=O)c2c1ccn(CCCn1ccnc1)c2=O`, the inhibition result was “inactive”.

As to `CC1(C)OC(=O)c2c1ccn(CCc1ccc(O)cc1)c2=O`, the inhibition entry is “inactive”.

Turning to `CC1(C)OC(=O)c2c1ccn(CCc1ccccc1)c2=O`, the inhibition entry is “inactive”.

The species entered for the next assay is Oryctolagus cuniculus. The assay is described as follows: Inhibition of chymotrypsin-like activity of 20S proteasome catalytic core from rabbit erythrocytes using Suc-LLVY-AMC as substrate at 100 uM preincubated for 15 mins prior to substrate addition measured after 45 mins.
Settings: not given
Turning to `CC1(C)OC(=O)c2c1ccn(CC(O)CN1CCOCC1)c2=O` (stereo unspecified), the inhibition result was “inactive”.

On to `CC1(C)OC(=O)c2c1ccn(CCCN1CCCC1)c2=O`, for which the inhibition entry is “inactive”.

For `CC1(C)OC(=O)c2c1ccn(CC(O)COc1ccccc1)c2=O` (stereo unspecified), the inhibition result is “inactive”.

As for `CC1(C)OC(=O)c2c1ccn(CCO)c2=O`, the inhibition entry is “inactive”.

As for `CC1(C)OC(=O)c2c1ccn(Cc1ccncc1)c2=O`, the inhibition result was “inactive”.

With `CC1(C)OC(=O)c2c1ccn(CC(O)c1ccccc1)c2=O` (stereo unspecified), the inhibition result is “inactive”.

For the compound `CC1(C)OC(=O)c2c1ccn(Cc1cccc(C(F)(F)F)c1)c2=O`, the inhibition entry is “inactive”.

For `CC1(C)OC(=O)c2c1ccn(CCc1ccccc1Cl)c2=O`, the inhibition entry was “inactive”.

In the case of `CC1(C)OC(=O)c2c1ccn(CCc1ccc(S(N)(=O)=O)cc1)c2=O`, the inhibition entry was “inactive”.

Take `CC1(C)OC(=O)c2c1ccn(CCc1c[nH]c3ccccc13)c2=O`: the inhibition result is “inactive”.

Turning to `CN(C)CCn1ccc2c(c1=O)C(=O)OC2(C)C`, the inhibition result is “inactive”.

In the case of `CC1(C)OC(=O)c2c1ccn(CCCn1ccnc1)c2=O`, the inhibition result is “inactive”.

`CC1(C)OC(=O)c2c1ccn(CCc1ccc(O)cc1)c2=O` returned an inhibition of 38.2%.

Regarding `CC1(C)OC(=O)c2c1ccn(CCc1ccccc1)c2=O`, the inhibition result was “inactive”.

A further assay is filed under the species Homo sapiens. Briefly: Inhibition of trypsin-like activity of 20S proteasome catalytic core from human erythrocytes using Boc-LRR-AMC as substrate preincubated for 15 mins prior to substrate addition measured after 45 mins.
Settings: not given
Turning to `CC1(C)OC(=O)c2c1ccn(Cc1ccncc1)c2=O`, the inhibition entry was “inactive”.

Target in another assay: not listed separately
The assay is described as follows: Inhibition of caspase-like activity of 20S proteasome catalytic core from human erythrocytes using Z-LLE-NA as substrate preincubated for 15 mins prior to substrate addition measured after 45 mins.
Settings: not given
Compound `CC1(C)OC(=O)c2c1ccn(Cc1ccncc1)c2=O` had an IC50 of 7.9 µM.

Turning to `CC1(C)OC(=O)c2c1ccn(CCc1ccccc1)c2=O`, the IC50 came to 45.7 µM.

Target in a further assay: not listed separately
The assay is described as follows: Inhibition of caspase-like activity of 20S proteasome catalytic core from rabbit erythrocytes using Z-LLE-NA as substrate preincubated for 15 mins prior to substrate addition measured after 45 mins. The arrangement: species or system Oryctolagus cuniculus.
Settings: not given
In the case of `CC1(C)OC(=O)c2c1ccn(CCCN1CCCC1)c2=O`, the IC50 stood at 11.4 µM.

The compound `CC1(C)OC(=O)c2c1ccn(CC(O)COc1ccccc1)c2=O` (stereo unspecified) showed an IC50 of 39.7 µM.

In turn, `CC1(C)OC(=O)c2c1ccn(CCO)c2=O` yielded an IC50 of 12.1 µM.

Consider `CC1(C)OC(=O)c2c1ccn(Cc1ccncc1)c2=O`, for which half-maximal inhibition (IC50) was put at 7 µM. Compared with the last compound, the IC50 is about 1.7-fold lower.

`CC1(C)OC(=O)c2c1ccn(CC(O)c1ccccc1)c2=O` (stereo unspecified) showed an IC50 of 5.2 µM.

The compound `CC1(C)OC(=O)c2c1ccn(Cc1cccc(C(F)(F)F)c1)c2=O` displayed an IC50 of 8.4 µM.

The compound `CC1(C)OC(=O)c2c1ccn(CCc1ccccc1Cl)c2=O` returned an IC50 of 4.9 µM.

In turn, `CC1(C)OC(=O)c2c1ccn(CCc1ccc(S(N)(=O)=O)cc1)c2=O` yielded an IC50 of 5.5 µM.

Turning to `CC1(C)OC(=O)c2c1ccn(CCCn1ccnc1)c2=O`, the IC50 is 76.8 µM.

For `CC1(C)OC(=O)c2c1ccn(CCc1ccccc1)c2=O`, the midpoint of inhibition, the IC50, lay at 48.7 µM.

The next assay addresses Cathepsin B (Homo sapiens) (UniProt P07858). Briefly: Inhibition of cathepsin B from human hepatocytes using […] as substrate. The settings on record: Hepatocyte.
In the case of `CC1(C)OC(=O)c2c1ccn(CC(O)CN1CCOCC1)c2=O` (stereo unspecified), the inhibition result was “inactive”.

On to `CC1(C)OC(=O)c2c1ccn(CCCN1CCCC1)c2=O`, for which the inhibition result was “inactive”.

In the case of `CC1(C)OC(=O)c2c1ccn(CC(O)COc1ccccc1)c2=O` (stereo unspecified), the inhibition result was “inactive”.

As for `CC1(C)OC(=O)c2c1ccn(CCO)c2=O`, the inhibition result is “inactive”.

As to `CC1(C)OC(=O)c2c1ccn(Cc1ccncc1)c2=O`, the inhibition result was “inactive”.

With `CC1(C)OC(=O)c2c1ccn(CC(O)c1ccccc1)c2=O` (stereo unspecified), the inhibition entry was “inactive”.

For the compound `CC1(C)OC(=O)c2c1ccn(Cc1cccc(C(F)(F)F)c1)c2=O`, the inhibition entry is “inactive”.

With `CC1(C)OC(=O)c2c1ccn(CCc1ccccc1Cl)c2=O`, the inhibition result was “inactive”.

For the compound `CC1(C)OC(=O)c2c1ccn(CCc1ccc(S(N)(=O)=O)cc1)c2=O`, the inhibition entry is “inactive”.

Regarding `CC1(C)OC(=O)c2c1ccn(CCc1c[nH]c3ccccc13)c2=O`, the inhibition result was “inactive”.

Consider `CN(C)CCn1ccc2c(c1=O)C(=O)OC2(C)C`, for which the inhibition result is “inactive”.

As for `CC1(C)OC(=O)c2c1ccn(CCCn1ccnc1)c2=O`, the inhibition entry is “inactive”.

As to `CC1(C)OC(=O)c2c1ccn(CCc1ccc(O)cc1)c2=O`, the inhibition entry is “inactive”.

As for `CC1(C)OC(=O)c2c1ccn(CCc1ccccc1)c2=O`, the inhibition result was “inactive”.
